# From PMC10325900, “A conserved motif in the disordered linker of human MLH1 is vital for DNA mismatch repair and its function is diminished by a cancer family mutation” (Nucleic Acids Research, 2023)
# Residue numbers refer to the chain shown, from its start.
# T1: MLH1-ΔConMot-PMS2 (Homo sapiens, UniProt P40692+P54278, DEL377-396)
# T1 construct: The pcDNA3 expression vector containing the entire open reading frame of human MLH1; expressed in transfected cells; host or cells: HEK293T (MLH1-deficient), transiently co-transfected
# T1 sequence (P40692 with tags, fused parts or gaps DEL377-396): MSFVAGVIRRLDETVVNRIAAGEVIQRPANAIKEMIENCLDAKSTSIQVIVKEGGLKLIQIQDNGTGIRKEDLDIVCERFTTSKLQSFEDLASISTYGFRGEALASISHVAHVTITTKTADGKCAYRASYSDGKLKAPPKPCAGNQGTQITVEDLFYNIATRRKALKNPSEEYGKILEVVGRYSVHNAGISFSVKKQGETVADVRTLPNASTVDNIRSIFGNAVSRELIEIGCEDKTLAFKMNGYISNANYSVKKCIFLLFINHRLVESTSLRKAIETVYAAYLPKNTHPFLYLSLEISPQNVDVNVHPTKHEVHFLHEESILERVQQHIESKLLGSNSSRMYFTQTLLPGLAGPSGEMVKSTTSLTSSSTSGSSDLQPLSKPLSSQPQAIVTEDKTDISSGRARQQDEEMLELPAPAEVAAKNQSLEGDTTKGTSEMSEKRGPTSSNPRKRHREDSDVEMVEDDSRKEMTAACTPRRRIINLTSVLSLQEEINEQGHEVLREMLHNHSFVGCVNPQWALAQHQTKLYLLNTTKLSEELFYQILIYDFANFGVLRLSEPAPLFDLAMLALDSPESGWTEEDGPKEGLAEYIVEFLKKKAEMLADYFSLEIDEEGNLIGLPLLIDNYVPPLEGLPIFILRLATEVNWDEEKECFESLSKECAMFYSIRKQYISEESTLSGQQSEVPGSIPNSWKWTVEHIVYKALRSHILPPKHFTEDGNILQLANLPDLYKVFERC
# T1 sequence (P54278 1-862 partner): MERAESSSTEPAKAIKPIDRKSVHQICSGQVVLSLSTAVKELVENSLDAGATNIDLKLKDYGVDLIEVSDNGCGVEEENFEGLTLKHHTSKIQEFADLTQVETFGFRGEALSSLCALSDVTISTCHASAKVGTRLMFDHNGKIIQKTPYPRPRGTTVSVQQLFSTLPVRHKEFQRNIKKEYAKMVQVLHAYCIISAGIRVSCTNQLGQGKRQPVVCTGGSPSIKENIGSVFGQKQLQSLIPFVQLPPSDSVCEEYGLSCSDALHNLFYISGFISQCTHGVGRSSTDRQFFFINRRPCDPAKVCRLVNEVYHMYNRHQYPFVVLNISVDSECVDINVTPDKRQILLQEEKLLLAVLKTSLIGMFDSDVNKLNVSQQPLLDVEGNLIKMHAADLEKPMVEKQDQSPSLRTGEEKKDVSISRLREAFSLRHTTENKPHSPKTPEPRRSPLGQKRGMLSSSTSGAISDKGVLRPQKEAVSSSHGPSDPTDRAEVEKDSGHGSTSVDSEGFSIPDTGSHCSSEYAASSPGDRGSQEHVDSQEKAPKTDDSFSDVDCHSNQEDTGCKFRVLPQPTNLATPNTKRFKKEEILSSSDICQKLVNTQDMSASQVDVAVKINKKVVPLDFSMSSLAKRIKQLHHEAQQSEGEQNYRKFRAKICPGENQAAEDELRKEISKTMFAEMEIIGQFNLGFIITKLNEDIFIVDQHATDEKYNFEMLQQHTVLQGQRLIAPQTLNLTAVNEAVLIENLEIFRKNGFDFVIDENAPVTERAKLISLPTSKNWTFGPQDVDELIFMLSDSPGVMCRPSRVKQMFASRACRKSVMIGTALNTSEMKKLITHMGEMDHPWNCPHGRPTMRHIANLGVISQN
# B1: p.Tyr379Cys: human MLH1 missense variant, c.1136A>G (protein, UniProt P40692 2-756, looked up, variant Y379C)
# DNA mismatch repair protein …: SFVAGVIRRLDETVVNRIAAGEVIQRPANAIKEMIENCLDAKSTSIQVIVKEGGLKLIQIQDNGTGIRKEDLDIVCERFTTSKLQSFEDLASISTYGFRGEALASISHVAHVTITTKTADGKCAYRASYSDGKLKAPPKPCAGNQGTQITVEDLFYNIATRRKALKNPSEEYGKILEVVGRYSVHNAGISFSVKKQGETVADVRTLPNASTVDNIRSIFGNAVSRELIEIGCEDKTLAFKMNGYISNANYSVKKCIFLLFINHRLVESTSLRKAIETVYAAYLPKNTHPFLYLSLEISPQNVDVNVHPTKHEVHFLHEESILERVQQHIESKLLGSNSSRMYFTQTLLPGLAGPSGEMVKSTTSLTSSSTSGSSDKVCAHQMVRTDSREQKLDAFLQPLSKPLSSQPQAIVTEDKTDISSGRARQQDEEMLELPAPAEVAAKNQSLEGDTTKGTSEMSEKRGPTSSNPRKRHREDSDVEMVEDDSRKEMTAACTPRRRIINLTSVLSLQEEINEQGHEVLREMLHNHSFVGCVNPQWALAQHQTKLYLLNTTKLSEELFYQILIYDFANFGVLRLSEPAPLFDLAMLALDSPESGWTEEDGPKEGLAEYIVEFLKKKAEMLADYFSLEIDEEGNLIGLPLLIDNYVPPLEGLPIFILRLATEVNWDEEKECFESLSKECAMFYSIRKQYISEESTLSGQQSEVPGSIPNSWKWTVEHIVYKALRSHILPPKHFTEDGNILQLANLPDLYKVFERC
# B2: p.Val384Asp: human MLH1 missense variant, c.1151T>A (protein, UniProt P40692 2-756, looked up, variant V384D)
# DNA mismatch repair protein …: B1 DNA mismatch repair protein … with C378Y, V383D
# Columns and labels:
# MLH1-ΔConMot-PMS2 = target: T1, MLH1-ΔConMot-PMS2; test: DNA mismatch repair (MMR) complementation assay with peptide, MLH1-ΔConMot variant; type: biochemical
# Method: (§1) Mismatch repair activity was assessed as described in detail before ([79],[81]) (Supplementary Figure S3). […] Mismatched DNA plasmid substrate (Supplementary Figure S3) prepared according to previously published procedures ([81–83]) was added, and reactions in a final volume of 25 μl were incubated at 37°C for 15 min. Repair efficiency was scored by purifying the mismatched DNA plasmid from the reaction and assessing the fraction of homoduplex sequence by restriction digestion of the mismatched site using EcoRV. The substrate was additionally linearized with AseI.
# For complementation assays with peptide, the indicated peptide(s) were used at stock concentrations of 50 or 500 μM in HEPES–KOH 20 mM pH 7.6 and supplemented to the MMR reactions.
# Figure 4. Reaction of DNA mismatch repair to addition of ConMot peptide. (A) Nuclear extract of MLH1-proficient HEK293 cells was used for performing the DNA mismatch repair reaction. Four reactions were undertaken, with two reactions supplemented with either 7.5 μM or 75 μM ConMot-32 peptide. A negative control reaction was performed by omitting the 37°C repair incubation. (B) MMR reactions were performed with nuclear extract of MLH1-deficient HEK293T cells supplemented with extract of cells transfected either with wildtype MLH1-PMS2 (positive control) or with MLH1-ΔConMot-PMS2. To these MMR reactions, different peptides were added at a concentration of 75 μM: A ConMot-32 peptide (A), a Scramble-32 peptide (B) in which the conserved ConMot sequence is scrambled, and a short ConMot-20 peptide (C) that only contains the twenty highly conserved ConMot residues. The peptide sequences are given below the gel image. (C) The concentration-dependence of the MMR-activating effect of the ConMot-32 peptide observed in (B) was measured over a concentration range from 1–75 μM. (D) Theoretical binding curves of a ligand (peptide) to a protein were calculated for dissociation constants (KD) of 1, 5 and 10 μM for a protein concentration as present for MLH1-PMS2 in the MMR assay reactions (see also Supplementary Figure S3). Into this diagram, the average MMR activities (and standard deviations) measured in >3 of the experiment exemplarily shown in C were introduced as bars at ConMot-32 peptide concentrations of 1, 2.5, 7.5, 18 and 75 μM.
# Second, we used extract of the repair-deficient cell line HEK293T supplemented with either wildtype MutLα (MLH1-PMS2) or the ΔConMot deletion variant, corresponding to experiment shown in Figure 2B. In this experiment, we again added ConMot peptide.
# We investigated the effect of the ConMot peptide more closely by titrating the required peptide concentrations for activation. We determined that the mismatch repair reactions performed in this study contained approximately 280 fmol MLH1 (Supplementary Figure S4A and B), which is in good agreement with previous quantifications of MLH1-PMS2 in cells and extracts ([96]). […] Dissociation constants (KD) for peptides to proteins are typically in the range of 1–10 μM ([97]). We compared the measured concentration-dependent MMR activities with theoretical binding curves of (peptide) ligands to (protein) substrates for KD values of 1, 5 and 10 μM (Supplementary Figure S4C) at the determined MLH1 concentration. […] It is therefore plausible that a binding reaction of the ConMot peptide (to a protein) underlies the restauration of MMR activity. […]
# Deletion C on M ot (∆Co nMot) c.1129_1188del CTGCAGCCTCTGAGCAAA […]
# Del et i on comp are (∆Compare) c.1221_1280del […] ACTGGACAGGGGTTTGCT
# Scramble c.1147_1160delinsGAC ggtacgtTCCCGGGAACAGAAGCT atagtgtcCTGGTGGGCATAGACCT
# p.(M383_D387delinsDTMVR) ACTATGGTAC G T TATC
# ConMot hy bri d gcataTCTGCAGCCTCTGAGCAA acagg[…]
# Supplementary Table 1: Analyzed variant inf ormation.
# Variant descriptions confer to HGVS format and refer to the MLH1 reference cDNA (NM_000249.4) […]
# [1] = target: MLH1-ΔConMot-PMS2 (MutLα heterodimer with the ConMot deletion variant of MLH1) (human) (UniProt P40692)
# [2] = test system: G-T mismatch in a test plasmid; test: MMR activity of MLH1 variants (MLH1-PMS2 expressed in HEK293T cells); type: biochemical, human; details: variant MLH1 + PMS2 transfected in HEK293T, relative to wildtype; 37°C, 15 min; >3 independent experiments
# Method: Sequence variants of the MLH1 expression vector were generated using the Q5 site directed mutagenesis system (New England Biolabs, Ipswich, MA, USA) with the appropriate primers (Supplementary Table S1).
# as §1
# Figure 2. Expression and DNA mismatch repair activity of human and artificial ConMot variants. […] As a negative control, one sample was only transfected with an EGFP. After 48 h, native whole cell protein extracts were prepared. Expression was assessed by SDS-PAGE and western blotting. (A) Representative western blot of MLH1 wildtype and variant expressions. Average expression levels of MLH1 of > 5 independent transfections were determined and are given in the bar diagram below. (B) The extracts of the transfections were used to assess the DNA mismatch repair activities of the variant MLH1 proteins in comparison with wildtype (WT) MLH1-PMS2 as detailed in Materials and Methods and as shown in Supplementary Figure S3. The EGFP-transfected extract sample served as negative control. Representative agarose gels are shown in the top panel.
# Figure 3. Analysis of the relevance of ConMot core and surrounding sequences. MLH1 proteins containing either the wildtype human ConMot motif sequence or variants were directly compared concerning expression and MMR activity. (A) Comparison of the ConMot variants used: the core-scramble variant sequence, the full-scramble variant sequence and an animal-plant hybrid that contains the ConMot consensus sequence of plants as it exists, for example, in walnut and mungo bean (Vigna radiata and Juglans regia). (B) Comparison of conservation in the animal versus plant ConMot in WebLogo representation. Specific differences in conservation within the sequences flanking the core MVRTD sequence are marked by red arrows above the animal sequence. (C) Western blot of the expression of the different MLH1-ConMot wildtype (WT) and the variants shown in A after transfection in HEK293T cells; negative control: transfection of EGFP. (D) MMR activities were assessed in direct comparison to negative control and wildtype human MLH1 as in Figure 2B. Average activities and standard deviations were calculated from >3 independent experiments.
# Figure 6. The MMR defect of p.Tyr750Arg is partly compensated by p.Arg385Tyr. […] (B) The side chain of the highly conserved Arg385 is predicted to be in proximity to the side chain of the highly conserved Tyr750 residue. (C) MLH1-PMS2-deficient HEK293T cells were co-transfected with the indicated single- and double variants of MLH1 and PMS2. Protein extracts were prepared, separated by SDS-PAGE, blotted and probed for MLH1 protein expression. (D) MMR assays were performed to test DNA mismatch repair activity as detailed in Materials and Methods. One representative agarose gel is shown, and average repair values in comparison to wildtype and standard deviations of >3 independent experiments are shown in a bar diagram. A two-sided t-test was performed for testing significance of the difference in repair activity of p.Tyr750Arg in comparison to the double variant p.Arg385Tyr + Tyr750Arg.
# Mismatched DNA plasmid substrate and principle of MMR assay.
# The MMR assay is performed using as substrate a modified 2 kbp derivative of the pUC vector (pUC
# CPDC Bb v) originally generated by Wang and Hays and further modified by Plotz et al. and Gonzáles-
# Acosta et al . […]
molecule,measurement,setting,value
SGSSDMVQFEKLKDRRSQDATYVAHLQPLSKP [Scramble-32],restoration of DNA mismatch repair activity of the ΔConMot variant,"MLH1-ΔConMot-PMS2; peptide 75 μM (Figure 4B), HEK293T nuclear extract 50 μg + 5 μg transfected extract, 25 μl, 37°C, 15 min, EcoRV/AseI digestion, agarose gel",did not restore MMR activity
KVYAHQMVRTDSREQKLDAF [ConMot-20],effect of 20mer-ConMot on MMR restauration by the 32mer-ConMot,"MLH1-ΔConMot-PMS2; Figure 4B, peptides at 75 μM, combined peptides, 37°C, 15 min",did not affect MMR restauration
same,effect of peptide on MMR (summary in Supplementary Table 2),"MLH1-ΔConMot-PMS2; molar ratio 0-860-2300-8600 to hMLH1-PMS2, Tris-HCl pH 7.5, 5 mM Mg2+, 1.5 mM ATP",inactive
SGSSDKVYAHQMVRTDSREQKLDAFLQPLSK [ConMot-32 peptide (32-mer peptide containing the sequence of the MLH1-ConMot)],KD read by comparing the concentration-dependent MMR restoration with theoretical binding curves of a peptide ligand to a protein at the determined MLH1 concentration,[1],7.5 µM
B1,DNA mismatch repair activity of MLH1 variant (in words),[2],did not find a catalytic defect
B2,DNA mismatch repair activity of MLH1 variant (in words),[2],no detectable impairment of MMR
